Values of other authors as cited in US9693981B2 (INTEC PHARMA LTD., priority 2008, dated 2017).

Assays:
[1] = according to the USP 30
[2] = high-fat/heavy meal compared to the fasted state, healthy adults

In the case of `CCN(C(C)=O)c1cccc(-c2ccnc3c(C#N)cnn23)c1` [Zaleplon], the solubility [1] is given as “very slightly soluble”, the AUC [2] is given as “not significantly affected” and the “delay of Tmax” value [2] is given as “approximately 2 hours”. The “reduction of Cmax” value [2] was “approximately 35%”.
